Measured values: patent publication US20190352297A1, “SELECTIVE AURORA A KINASE INHIBITORS” (UNIVERSITAT BERN, priority 2017, published 2019)
Positions count from the first letter of the chain named.

Experiments:
[1] = biological target: T1, AuroraB/INCENP complex (Homo sapiens, UniProt Q96GD4); assay: HTRF kinase assay, AuroraB/INCENP complex; assay type: biochemical
T1 construct: purchased Millipore 14-835
Experimental: Aurora A and AuroraB kinases were assayed using the homogeneous time-resolved fluorescence (HTRF) KinEASE STK2 kit from Cisbio (France). […] For both enzymes, the reactions were run for 30 min at room temperature and stopped by the addition of 10 μL of detection buffer containing EDTA, antiphospho-Ser/Thr antibody labelled with europium cryptate, and XL-665 conjugated streptavidin (62.5 nM final concentration). After incubation at room temperature for one hour, fluorescence was measured at 620 nm (europium cryptate) and 665 nm (XL-665) after excitation at 317 nm (lag time 60 μs, integration time 500 μs) using a Tecan Infinite M1000 PRO microplate reader (Greiner 384-well plates, white, non-binding, small volume). The ratio of fluorescence (665 nm/620 nm) was calculated for each well and the results were expressed as follows: specific signal=ratio (sample)−ratio (negative control), where ratio=665 nm/620 nm×10^4. Compounds were measured in threefold serial dilutions at 10 different concentrations, covering the concentration range from no to full inhibition. Each concentration was measured in duplicates, and two independent determinations were made for each IC50 value. IC50 curves were generated using a four-parameter logistic model (XLfit from IDBS).

[2] = biological target: T2, GFP-Aurora A-Arg137Ala (Homo sapiens, UniProt O14965, R137A); assay: Phenotypic rescue, cells expressing mutant Aurora A; assay type: cell-based
T2 construct: All Aurora A clones were constructed using full-length Aurora A as a template; expressed in transfected cells; host or cells: HeLa Kyoto
T2 sequence (O14965 1-403 R137A): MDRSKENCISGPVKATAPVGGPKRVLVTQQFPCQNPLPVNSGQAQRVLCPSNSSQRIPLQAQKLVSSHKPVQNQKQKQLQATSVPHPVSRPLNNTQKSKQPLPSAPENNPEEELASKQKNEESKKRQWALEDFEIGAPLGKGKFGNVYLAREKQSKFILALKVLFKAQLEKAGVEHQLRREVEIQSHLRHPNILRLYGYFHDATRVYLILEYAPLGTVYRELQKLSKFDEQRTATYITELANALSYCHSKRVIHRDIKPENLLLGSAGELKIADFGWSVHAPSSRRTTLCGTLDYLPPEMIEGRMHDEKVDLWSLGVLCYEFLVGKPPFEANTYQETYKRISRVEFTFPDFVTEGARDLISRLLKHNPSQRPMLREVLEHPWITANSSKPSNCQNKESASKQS
Experimental: (§1) HeLa Kyoto cells were cultured in high-glucose DMEM with GlutaMAX (Life Technologies) media supplemented with 10% fetal calf serum (FCS) in a humidified 5% CO2 incubator at 37° C. For plasmid transfections, cells were seeded at 80-90% confluence. 4 μg of plasmid DNA in 100 μl OptiMEM and 4 μl of Lipofectamine 2000 (Life Technologies) in 100 μl OptiMEM were incubated in parallel for 5 minutes, mixed for 20 minutes and added to each well. All Aurora A clones were constructed using full-length Aurora A as a template with appropriate PCR primer pairs. […] GFP-Aurora AR137A and GFP-Aurora AW277A were engineered using a site directed mutagenesis kit (Agilent Technologies, no. 210515) with appropriate primers. For determining the mitotic index and the chromosome misalignment phenotype, cells were incubated with various concentrations of compounds for 20 h before analysis. Cells were likewise treated with 0.25 μM MLN8237 (Selleckchem, no. S1133) or 5 μM ZM447439 (Selleckchem, no. S1103). For flow cytometry analysis, 50 nM MLN8037 and 2.5 μM ZM447439 were used. […] To assess the impact of compound 9 on cell cycle progression, DNA content was analyzed after propidium iodide staining using FACS (BD Accuri C6 flow cytometer).

[3] = biological target: T3, GFP-Aurora A-Trp277Ala (Homo sapiens, UniProt O14965, W277A); assay: as above; assay type: cell-based
T3 construct: All Aurora A clones were constructed using full-length Aurora A as a template; expressed in transfected cells; host or cells: HeLa Kyoto
T3 sequence (O14965 1-403 W277A): T2 sequence (O14965 1-403 R137A) with A137R, W277A
Experimental: as §1

[4] = tested on: HeLa cells; assay: Mitotic index of HeLa cells; assay type: cell-based, human
Experimental: HeLa Kyoto cells were cultured in high-glucose DMEM with GlutaMAX (Life Technologies) media supplemented with 10% fetal calf serum (FCS) in a humidified 5% CO2 incubator at 37° C. For plasmid transfections, cells were seeded at 80-90% confluence. 4 μg of plasmid DNA in 100 μl OptiMEM and 4 μl of Lipofectamine 2000 (Life Technologies) in 100 μl OptiMEM were incubated in parallel for 5 minutes, mixed for 20 minutes and added to each well. All Aurora A clones were constructed using full-length Aurora A as a template with appropriate PCR primer pairs. […] For determining the mitotic index and the chromosome misalignment phenotype, cells were incubated with various concentrations of compounds for 20 h before analysis. […] For rescue experiments, HeLa Kyoto cells were first transfected with GFP-Aurora A, GFP-Aurora AR137A or GFP-Aurora AW277A for 20 h, followed by incubation with 9 for another 20 h before cells were fixed with cold methanol and stained.

T1 sequence (Q96GD4 whole entry): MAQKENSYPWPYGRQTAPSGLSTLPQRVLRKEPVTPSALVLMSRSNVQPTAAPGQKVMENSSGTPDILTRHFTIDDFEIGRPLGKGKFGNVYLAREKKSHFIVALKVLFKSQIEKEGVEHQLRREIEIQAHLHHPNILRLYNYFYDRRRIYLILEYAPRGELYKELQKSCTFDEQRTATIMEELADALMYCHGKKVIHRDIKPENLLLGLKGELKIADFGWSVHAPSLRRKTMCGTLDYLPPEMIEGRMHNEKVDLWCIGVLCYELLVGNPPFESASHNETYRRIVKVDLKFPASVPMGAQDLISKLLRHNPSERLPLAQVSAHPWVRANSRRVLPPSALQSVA
T1 sequence (Q9NQS7 whole entry partner): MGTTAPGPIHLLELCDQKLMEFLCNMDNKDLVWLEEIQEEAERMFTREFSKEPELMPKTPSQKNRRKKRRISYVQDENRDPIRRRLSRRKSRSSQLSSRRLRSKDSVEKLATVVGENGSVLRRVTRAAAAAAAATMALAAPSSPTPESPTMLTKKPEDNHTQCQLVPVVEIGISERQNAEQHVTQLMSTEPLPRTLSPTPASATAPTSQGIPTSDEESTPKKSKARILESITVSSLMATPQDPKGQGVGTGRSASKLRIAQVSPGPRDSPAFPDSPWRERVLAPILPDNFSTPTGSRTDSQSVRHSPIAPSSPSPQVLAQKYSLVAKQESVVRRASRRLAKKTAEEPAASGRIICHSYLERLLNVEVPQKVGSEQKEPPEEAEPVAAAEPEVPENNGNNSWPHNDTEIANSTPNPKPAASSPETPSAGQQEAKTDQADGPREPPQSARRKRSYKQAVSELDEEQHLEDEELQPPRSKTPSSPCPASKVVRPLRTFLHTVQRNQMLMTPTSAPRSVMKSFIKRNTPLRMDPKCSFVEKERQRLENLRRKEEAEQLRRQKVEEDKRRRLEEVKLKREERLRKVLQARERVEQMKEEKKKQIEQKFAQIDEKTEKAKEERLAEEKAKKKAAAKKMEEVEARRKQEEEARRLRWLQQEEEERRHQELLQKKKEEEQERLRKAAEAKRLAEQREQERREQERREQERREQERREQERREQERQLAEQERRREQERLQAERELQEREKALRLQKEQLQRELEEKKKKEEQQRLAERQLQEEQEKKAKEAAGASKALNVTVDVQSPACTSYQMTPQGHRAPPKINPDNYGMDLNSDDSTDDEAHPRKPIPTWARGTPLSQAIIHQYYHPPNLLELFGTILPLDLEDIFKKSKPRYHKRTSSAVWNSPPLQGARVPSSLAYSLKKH

IC50 ([1]; 20 μM ATP, HTRF, read-out: IC50 Aurora B in complex with INCENP (biochemical)): 149 ± 3 nM
weaker inhibition of Aurora B/INCENP compared to KD measured with free Aurora B ([1]; IC50 Aurora B/INCENP versus KD free Aurora B): 15 fold
sensitivity of GFP-Aurora A-Arg137Ala to inhibitor [2]: insensitive
sensitivity of GFP-Aurora A-Trp277Ala to inhibitor [3]: insensitive
Compound: CCc1ccc(N=C2SC(=Cc3ccnc(Nc4ccc(C(=O)O)cn4)c3)C(=O)N2C)cc1 [Compound 9]
mitotic index ([4]; 4 μM): ~15%
mitotic index ([4]; 10 μM): ~25%
mitotic index ([4]; 25 μM): ~40%
